These results are taken from patent US20110129868A1, “CELL CAPABLE OF REPLICATING NOVEL HCV REPLICON, CELL CAPABLE OF REPLICATING FULL-LENGTH HCV RNA, AND USE OF THOSE CELLS” (priority 2008, published 2011).

Where two headings read alike, the source gives them in different places.

The test system of series [1] is full-length HCV RNA replication in ORL11 cells. Kind of series: microbe, parasite or virus in culture. The note with it: for luciferase activity after treatment (single agent or combined use): drug concentrations based on the EC50 values. The series is classed as cell-based, HCV-O strain (genotype 1b). The method, then:
(§1) Renilla luciferase was quantified by collecting cells using a Renilla Luciferase Assay System (Promega) according to the manufacturer's experiment protocol.
(§2) Luciferase activity of each cell line was then measured at hour 24, 48, and 72. […] SD values were calculated based on the results from three samples at each point. […]

The subject of series [2] is full-length HCV RNA replication in ORL8 cells. Kind of series: microbe, parasite or virus in culture. The note with it: for EC50: Hepatitis C virus; for luciferase activity after treatment (single agent or combined use): drug concentrations based on the EC50 values. Type of series: cell-based, HCV-O strain (genotype 1b). The procedure: as §1, §2
The subject of series [3] is full-length HCV RNA replication in OR6 cells. Kind of series: microbe, parasite or virus in culture. The note with it: for luciferase activity after treatment (single agent or combined use): drug concentrations based on the EC50 values. The series is classed as cell-based, HCV-O strain (genotype 1b).
Excerpt: as §1
An OR6-cell assay system was used as a control.

The test system of the next series is ORL8 cells. Kind of series: cell count by trypan blue staining, ORL8 cells. Type of series: cell-based, human. The note with it: drug at the concentration corresponding to the EC50 value.
A further series deals with ORL11 cells. Kind of series: cell count by trypan blue staining, ORL11 cells. The series is classed as cell-based, human.
The next series concerns OR6 cells. Kind of series: cell count by trypan blue staining, OR6 cells. Type of series: cell-based, human. To be noted: drug at the concentration corresponding to the EC50 value.
For series [4], the system named is HCV replicon of Con1 strain. To be noted: cited from earlier work.
Setting [5] is: Hepatitis C virus, 72 h, luciferase activity after 72 hours, read-out: EC50.
Where [6] appears, read: ORL8 cells, luciferase activity after 72 hours, read-out: EC50.
Where [7] appears, read: Hepatitis C virus, OR6 cells, luciferase activity after 72 hours, read-out: EC50.
Setting [8] is: ORL11 cells, drug at the concentration corresponding to the EC50 value, trypan blue.

As to `COC1=C2C[C@@H](C)C[C@H](OC)[C@H](O)[C@@H](C)/C=C(\C)[C@H](OC(N)=O)[C@@H](OC)/C=C\C=C(/C)C(=O)NC(=CC1=O)C2=O` [Geldanamycin], the results for the EC50 in series [1] (setting [5]), in series [2] (setting [6]) and in series [3] (setting [7]) were 0.00331 µM, 0.00257 µM and 0.0021 µM, respectively.

Consider `CCC(C)(C)C(=O)O[C@H]1C[C@@H](C)C=C2C=C[C@H](C)[C@H](CC[C@@H]3C[C@@H](O)CC(=O)O3)[C@H]21` [SMV, Simvastatin], for which the EC50 in series [1] (setting [5]) came out at 0.15 µM; in series [2] (setting [6]) it was 0.28 µM; in series [3] (setting [7]), 1.42 µM.

Take `CC(=O)Oc1ccccc1C(=O)O` [ASA, Acetylsalicylic Acid]: the EC50 was 1170 µM in series [1] (Hepatitis C virus, 72 h, luciferase activity after 72 hours); 1330 µM in series [2] (ORL8, 72 h); 2160 µM in series [3] (Hepatitis C virus, OR6, 72 h); 4 mM in series [4] (HCV replicons of Con1 strain (Trujillo-Murillo et al.)). The “cell count over the control cells” value stood at 53% in the series on ORL8 cells, 72% in the series on ORL11 cells (setting [8]) and 51% in the series on OR6 cells.

Turning to `NC(=O)c1ncn([C@@H]2O[C@H](CO)[C@@H](O)[C@H]2O)c1O` [Mizoribine], the EC50 in series [1] (setting [5]) was 76.5 µM; in series [2] (setting [6]) it was 58.8 µM. For the same molecule, in series [3] (OR6 cells, at 200 μM, after 72 hours), the “luciferase activity (value relative to no drug)” value is “above 50%”.

In the case of `CCCCCCC(=O)CCCCCC/C=C/C[C@@H](O)[C@H](O)[C@@](N)(CO)C(=O)O` [Myriocin], the EC50 in series [1] (setting [5]) is 0.00362 µM; in series [2] (setting [6]), 0.00516 µM; in series [4] (Con1 strain, analyzed 72 hours after the addition of the drug), 5.8e-06 mM. For the same molecule, in series [3] (OR6 cells, at 5 nM to 40 nM, after 72 hours, EC50 not calculable), the “luciferase activity (relative to no drug)” value is given as “below 60%”. Also, the “cell count over the control cells” value is 83.5% with ORL8 cells, at least 91% in the series with ORL11 cells (setting [8]) and at least 91% with OR6 cells.

As to `O=C(O)C[C@H](O)C[C@H](O)/C=C/c1c(C2CC2)nc2ccccc2c1-c1ccc(F)cc1` [PTV, Pitavastatin], the results for the EC50 in series [1] (setting [5]), in series [2] (setting [6]) and in series [3] (setting [7]) were 0.16 µM, 0.45 µM and 0.46 µM, respectively. The “luciferase activity after treatment (single agent or combined use)” value in series [1] was 49%; in series [2] (ORL8 cells), 43%; in series [3] (OR6 cells), 56%. In addition, the “cell count over the control cells” value with ORL8 cells, with ORL11 cells (setting [8]) and with OR6 cells was at least 80% in each case.

As to `CC(C)n1c(/C=C/C(O)CC(O)CC(=O)O)c(-c2ccc(F)cc2)c2ccccc21` (stereo not drawn) [FLV, Fluvastatin], the EC50 in series [1] (FLV from a different manufacturer (LKT laboratories Inc., F4482), read-out: EC50) is 0.14 µM; in series [1] (setting [5]), 0.32 µM; in series [1] (Hepatitis C virus, FLV from a different manufacturer (LKT laboratories Inc., F4482), read-out: EC50) it was 0.11 µM; in series [2] (ORL8 cells, FLV from a different manufacturer (LKT laboratories Inc., F4482), read-out: EC50), 0.31 µM; in series [2] (setting [6]), 0.28 µM; in series [3] (Hepatitis C virus, OR6 cells, FLV from a different manufacturer (LKT laboratories Inc., F4482), read-out: EC50), 1.44 µM. The EC50 in series [3] (setting [7]) is 1.22 µM. For the same molecule, the entries for the “luciferase activity after treatment (single agent or combined use)” value in series [1], in series [2] (ORL8 cells) and in series [3] (OR6 cells) were 51%, 59% and 55%, respectively. Moreover, the “cell count over the control cells” value in the series on ORL8 cells, with ORL11 cells (setting [8]) and in the series with OR6 cells was at least 97% throughout.

Consider `CC[C@H](C)C(=O)O[C@H]1C[C@@H](C)C=C2C=C[C@H](C)[C@H](CC[C@@H]3C[C@@H](O)CC(=O)O3)[C@H]21` [LOV, Lovastatin], for which the EC50 in series [1] (setting [5]) was 1.04 µM; in series [2] (setting [6]), 1.49 µM; in series [3] (setting [7]), 3 µM.

B1: IFN-γ: interferon gamma (Sigma), pharmaceutical agent having an anti-HCV action (protein, UniProt P01579 24-161, looked up)
Interferon gamma: QDPYVKEAENLKKYFNAGHSDVADNGTLFLGILKNWKEESDRKIMQSQIVSFYFKLFKNFKDDQSIQKSVETIKEDMNVKFFNSNKKKRDDFEKLTNYSVTDLNVQRKAIHELIQVMAELSPAAKTGKRKRSQMLFRG
Regarding B1, the “EC50 (50% effective drug concentration)” value in series [1] (luciferase activity after 72 hours) stood at 0.13 IU/ml; in series [2] (ORL8 cells, luciferase activity after 72 hours) it was 0.077 IU/ml. Besides, the EC50 in series [3] (OR6 cells, luciferase activity after 72 hours) is reported as 0.21 IU/ml. Besides, the “cell count over the control cells” value in the series with ORL8 cells, in the series on ORL11 cells and with OR6 cells was at least 90% in each case.
